From US20150291610A1, “C20' Urea Derivatives of Vinca Alkaloids” (THE SCRIPPS RESEARCH INSTITUTE, priority 2012, published 2015)
Where two headings read alike, the source gives them in different places.

Key:
[1] = tested on: L1210 (mouse lymphocytic leukemia) cells; assay: Cell growth inhibition assay, L1210; assay type: cell-based; settings: L1210 murine leukemia cell line; avg of 4-16 determinations
Method: (§1) A population of cells (>1×10^6 cells/mL as determined with a hemocytometer) was diluted with an appropriate amount of Dulbecco-modified Eagle Medium (DMEM, Gibco) containing 10% fetal bovine serum (FBS, Gibco) to a final concentration of 30,000 cells/mL.
(§2) To each well of a 96-well plate (Corning Costar), 100 μL of the cell-media solution was added with a multichannel pipette. The cultures were incubated at 37° C. in an atmosphere of 5% CO2 and 95% humidified air for 24 hours. The test compounds were added to the plate as follows: test substances were diluted in DMSO to a concentration of 1 mM and 10-fold serial dilutions were performed on a separate 96-well plate. Fresh culture medium (100 μL) was added to each well of cells to constitute 200 μL of medium per well followed by 2 μL of each test agent. Compounds were tested in duplicate (n=2-8 times) at six concentrations between 0-1,000 nM or 0-10,000 nM. Following addition, cultures were incubated for an additional 72 hours.
(§3) The plates were incubated at 37° C. for either 5 minutes (L1210) or 15 minutes (HCT116 and HCT116/VM46).

[2] = tested on: HCT116/VM46 (vinblastine-resistant strain of HCT116, Pgp over-expression) cells; assay: Cell growth inhibition assay, HCT116/VM46; settings: for IC50: read-out: IC50 (nM) HCT116/VM46, resistant human colon cancer cell line, Pgp over-expression; for fold improvement over vinblastine, HCT116/VM46: relative to vinblastine
Method: as §1, §2, §3

[3] = tested on: HCT116 (human colorectal carcinoma) cells; assay: Cell growth inhibition assay, HCT116; assay type: cell-based
Method: as §1, §2, §3

[4] = HCT116 human colon cancer cell line, avg of 4-16 determinations, read-out: IC50 (nM) HCT116

Row | Compound | IC50 [2] [nM] | IC50 [3, 4] [nM] | other results
1 | CC[C@]1(NC(=O)NC2CC2)C[C@@H]2CN(CCc3c([nH]c4ccccc34)[C@@](C(=O)OC)(c3cc4c(cc3OC)N(C)[C@H]3[C@@](O)(C(=O)OC)[C@H](OC(C)=O)[C@]5(CC)C=CCN6CC[C@]43[C@@H]65)C2)C1 [Compound 18] | 85 | 0.73 | IC50 [1]: 3.9 nM; fold improvement over vinblastine, HCT116/VM46 [2]: 10 fold
2 | CCC1(NC(=S)Nc2ccccc2)CC2CN(CCc3c([nH]c4ccccc34)C(C(=O)OC)(c3cc4c(cc3OC)N(C)C3C(O)(C(=O)OC)C(OC(C)=O)C5(CC)C=CCN6CCC43C65)C2)C1 (stereo not drawn) [Compound 37] | 650 | 40 | 
3 | CC[C@]1(NC(=S)NCCc2ccc(F)cc2)C[C@@H]2CN(CCc3c([nH]c4ccccc34)[C@@](C(=O)OC)(c3cc4c(cc3OC)N(C)[C@H]3[C@@](O)(C(=O)OC)[C@H](OC(C)=O)[C@]5(CC)C=CCN6CC[C@]43[C@@H]65)C2)C1 [Compound 38] | 750 | 60 | 
4 | CC[C@]1(NC(=S)NC2CCCCC2)C[C@@H]2CN(CCc3c([nH]c4ccccc34)[C@@](C(=O)OC)(c3cc4c(cc3OC)N(C)[C@H]3[C@@](O)(C(=O)OC)[C@H](OC(C)=O)[C@]5(CC)C=CCN6CC[C@]43[C@@H]65)C2)C1 [Compound 36] | 520 | 20 | 
5 | CCC1(OC(=O)N(C)C)CC2CN(CCc3c([nH]c4ccccc34)C(C(=O)OC)(c3cc4c(cc3OC)N(C)C3C(O)(C(=O)OC)C(OC(C)=O)C5(CC)C=CCN6CCC43C65)C2)C1 (stereo not drawn) [Compound 44] | 9100 | 4700 | fold less active than N,N-dimethyl urea or thiourea 39 and 43 ([3]; HCT116): > 1000 fold
6 | CCNC(=O)N(C)[C@@]1(CC)C[C@@H]2CN(CCc3c([nH]c4ccccc34)[C@@](C(=O)OC)(c3cc4c(cc3OC)N(C)[C@H]3[C@@](O)(C(=O)OC)[C@H](OC(C)=O)[C@]5(CC)C=CCN6CC[C@]43[C@@H]65)C2)C1 [Compound 47] | 8500 | 520 | fold decrease in activity between 15 and 47 ([3]; HCT116): 700 fold
7 | CC[C@]1(NC)C[C@@H]2CN(CCc3c([nH]c4ccccc34)[C@@](C(=O)OC)(c3cc4c(cc3OC)N(C)[C@H]3[C@@](O)(C(=O)OC)[C@H](OC(C)=O)[C@]5(CC)C=CCN6CC[C@]43[C@@H]65)C2)C1 [Compound 45, 20′-(methylamino)vinblastine] | 8500 | 60 | 
8 | CC[C@]1(NC(=O)Oc2ccc([N+](=O)[O-])cc2)C[C@@H]2CN(CCc3c([nH]c4ccccc34)[C@@](C(=O)OC)(c3cc4c(cc3OC)N(C)[C@H]3[C@@](O)(C(=O)OC)[C@H](OC(C)=O)[C@]5(CC)C=CCN6CC[C@]43[C@@H]65)C2)C1 [Compound 13] |  | 55 | 
9 | CCC1(NC(=S)N(C)C)CC2CN(CCc3c([nH]c4ccccc34)C(C(=O)OC)(c3cc4c(cc3OC)N(C)C3C(O)(C(=O)OC)C(OC(C)=O)C5(CC)C=CCN6CCC43C65)C2)C1 (stereo not drawn) [Compound 43] | 250 | 8.7 | activity difference between sensitive HCT116 and vinblastine-resistant HCT116/VM46 ([2]; HCT116/VM46 vs HCT116): 10 fold
10 | CC[C@]12C=CCN3CC[C@@]4(c5cc([C@@]6(C(=O)OC)C[C@H]7CN(CCc8c6[nH]c6ccccc86)C[C@@](CC)(N(C)C)C7)c(OC)cc5N(C)[C@H]4[C@@](O)(C(=O)OC)[C@@H]1OC(C)=O)[C@@H]32 [Compound 46] | > 10000 | 980 | 
11 | CCNC(=O)NC1(CC)CC2CN(CCc3c([nH]c4ccc(F)cc34)C(C(=O)OC)(c3cc4c(cc3OC)N(C)C3C(O)(C(=O)OC)C(OC(C)=O)C5(CC)C=CCN6CCC43C65)C2)C1 (stereo not drawn) [Compound 49] | 70 |  | fold improvement over vinblastine, HCT116/VM46 [2]: ~10 fold; fold more potent than vinblastine, HCT116 ([3]; relative to vinblastine): at least 10 fold; IC50 ([3]; text values in pM, read-out: IC50 HCT116): 0.62 nM
12 | CCN(CC)C(=O)N[C@@]1(CC)C[C@@H]2CN(CCc3c([nH]c4ccccc34)[C@@](C(=O)OC)(c3cc4c(cc3OC)N(C)[C@H]3[C@@](O)(C(=O)OC)[C@H](OC(C)=O)[C@]5(CC)C=CCN6CC[C@]43[C@@H]65)C2)C1 [Compound 40] | 450 | 6.7 | 
